# Test results from PubChem BioAssay (NCI).
# “And” between values parts separate entries of the source, which are not always exact repeats. Equal entries are not always repeated.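 Assay format: 96-well plates, 48-hour exposure. GI50 is the concentration that inhibits growth by half. TGI denotes the concentration required for complete inhibition of growth.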
# Columns and labels:
# Test in all cases: NCI tumour cell line growth inhibition, 48 h
# 786-0 renal = tested on: 786-0 renal
# BT-549 breast = tested on: BT-549 breast
# CAKI-1 renal = tested on: CAKI-1 renal
# HL-60(TB) leukemia = tested on: HL-60(TB) leukemia
# HT29 colon = tested on: HT29 colon
# K-562 leukemia = tested on: K-562 leukemia
# M14 melanoma = tested on: M14 melanoma
# NCI-H460 lung = tested on: NCI-H460 lung
# SK-OV-3 ovarian = tested on: SK-OV-3 ovarian
# SN12C renal = tested on: SN12C renal
SMILES,GI50 (786-0 renal),TGI (786-0 renal),GI50 (BT-549 breast),TGI (BT-549 breast),GI50 (CAKI-1 renal),TGI (CAKI-1 renal),GI50 (HL-60(TB) leukemia),TGI (HL-60(TB) leukemia),GI50 (HT29 colon),TGI (HT29 colon),GI50 (K-562 leukemia),TGI (K-562 leukemia),GI50 (M14 melanoma),TGI (M14 melanoma),GI50 (NCI-H460 lung),TGI (NCI-H460 lung),GI50 (SK-OV-3 ovarian),TGI (SK-OV-3 ovarian),GI50 (SN12C renal),TGI (SN12C renal)
CNC(=O)c1ccc2cc(C3(O)CCn4cncc43)ccc2c1 (stereo unspecified),> 100 µM,> 100 µM,> 100 µM,> 100 µM,> 100 µM,> 100 µM,> 73.5 µM,> 100 µM,> 100 µM,> 100 µM,> 100 µM,> 100 µM,> 100 µM,> 100 µM,> 100 µM,> 100 µM,> 100 µM,> 100 µM,> 100 µM,> 100 µM
C/C1=C/C2=CC(C)C[C@@H]2C(=O)[C@]2(C)C(=O)CC(C)(C)[C@H]2CC1=O (stereo partly specified),–,> 50 µM,–,> 50 µM,–,> 50 µM,–,> 50 µM,–,> 50 µM,–,> 50 µM,–,> 50 µM,–,> 50 µM,–,> 50 µM,–,> 50 µM
c1ccc(-c2cc(C3CO3)c3ccccc3n2)cc1 (stereo unspecified),–,29.3 µM,–,43.6 µM,–,47.9 µM,–,63.7 µM,–,35.8 µM,–,93.1 µM,–,34.2 µM,–,39.1 µM,–,> 100 µM,–,31.3 µM
CCOC(=O)c1c2c(n(Cc3ccccc3)c1C)-c1ccccc1C(=O)C2=O,6.35 µM,19.3 µM,15.7 µM,29.7 µM,17.2 µM,36.6 µM,79.4 µM,> 100 µM,11.8 µM,25.7 µM,17.1 µM,> 100 µM,11.9 µM,24.5 µM,6.31 µM,21.5 µM,19.8 µM,37.2 µM,15.7 µM,41.6 µM
Cc1noc(C)c1-c1cc(O)cc(C(O)c2ccccc2)c1 (stereo unspecified),27.1 µM,> 100 µM,28.2 µM,> 100 µM,4.35 µM,> 100 µM,2.17 µM,22.7 µM,4.54 µM,> 100 µM,8.69 µM,> 100 µM,4.48 µM,> 100 µM,25.1 µM,> 100 µM,7.01 µM,> 100 µM,17.2 µM,> 100 µM
COc1ccc2c(c1)C(=O)C(=O)c1cc(O)c(OC)c(OC)c1-2,1.85 µM,1.72 µM and 3.26 µM,1.66 µM,1.44 µM and 3.02 µM,1.77 µM,1.67 µM and 3.15 µM,–,0.681 µM,–,3.83 µM,–,3.01 µM,1.73 µM,1.71 µM and 3.11 µM,1.64 µM,9.97 µM and 3.16 µM,1.79 µM,7.27 µM and 3.17 µM,1.71 µM,1.6 µM and 3.08 µM
O=C(Nc1cccc(Oc2nnc(Cl)c3ccccc23)c1)Nc1ccc(Cl)c(C(F)(F)F)c1,0.767 µM,3.01 µM,0.674 µM,3.07 µM,0.832 µM,6.5 µM,0.372 µM,6.06 µM,0.771 µM,3.14 µM,0.63 µM,4.27 µM,0.707 µM,3.16 µM,0.898 µM,3.44 µM,2.66 µM,6.7 µM,0.941 µM,3.85 µM
CN1CCN(c2ccc3nc(-c4c(N)c5c(F)cccc5[nH]c4=O)[nH]c3c2)CC1,1.2 µM and 0.695 µM and 0.946 µM,3.93 µM and > 3.84 µM and 3.07 µM,1.62 µM and 0.501 µM and 1.26 µM,10.2 µM and > 2.97 µM and 5.95 µM,0.213 µM and 0.282 µM and 0.387 µM,1.57 µM and > 10 µM and 12.5 µM,0.86 µM and 0.314 µM and 1.2 µM,2.8 µM and 2.36 µM and 3.12 µM,0.909 µM and 0.663 µM and 1.43 µM,2.89 µM and > 5.42 µM and 11.2 µM,0.598 µM and 0.528 µM and 0.932 µM,2.62 µM and 2.32 µM and 4.91 µM,0.41 µM and 0.34 µM and 0.445 µM,1.71 µM and 1.54 µM and 1.93 µM,0.369 µM and 0.344 µM and 0.454 µM,1.72 µM and 1.79 µM and 2.2 µM,0.379 µM and 0.487 µM and 0.515 µM,–,0.413 µM and 0.393 µM and 0.62 µM,5.3 µM and > 5.12 µM and 5.82 µM
COc1ccc2nc3cc(Cl)ccc3c(N3CCN(c4ccnc(N5CCOCC5)n4)CC3)c2c1,4.23 µM,34.3 µM,> 100 µM,> 100 µM,> 100 µM,> 100 µM,8.12 µM,> 100 µM,2.9 µM,16.7 µM,2.91 µM,> 100 µM,> 100 µM,> 100 µM,> 100 µM,> 100 µM,> 100 µM,> 100 µM,> 100 µM,> 100 µM
CN(C)CCNC(=O)Cn1cc([N+](=O)[O-])c(=O)c2ccccc21,–,> 100 µM,–,> 100 µM,–,> 100 µM,–,> 100 µM,–,> 100 µM,–,> 100 µM,–,> 100 µM,–,> 100 µM,–,> 100 µM,–,> 100 µM
O=C(CN1CCN(c2ccc(Cl)cc2)CC1)N1CCN(c2nnc(-c3ccc(Cl)cc3)c(-c3ccc(Cl)cc3)n2)CC1,22 µM,> 100 µM,28.7 µM,> 100 µM,52.6 µM,> 100 µM,> 100 µM,> 100 µM,9.85 µM,> 100 µM,> 100 µM,> 100 µM,28.2 µM,> 100 µM,> 100 µM,> 100 µM,33.9 µM,> 100 µM,37 µM,> 100 µM
CC(C)(C)c1[nH]cnc1/C=c1\[nH]c(=O)/c(=C/c2ccccc2)[nH]c1=O,< 0.01 µM,40.7 µM,0.0139 µM,12.1 µM,< 0.01 µM,32.7 µM,< 0.01 µM,11.1 µM,< 0.01 µM,9.44 µM,< 0.01 µM,> 100 µM,< 0.01 µM,17.1 µM,< 0.01 µM,17.7 µM,< 0.01 µM,60.9 µM,< 0.0144 µM,69.6 µM
CN(C)c1ncnc2c1nnn2C1OC(CO)C(O)C1O (stereo unspecified),0.226 µM,> 100 µM,1.09 µM,> 100 µM,0.066 µM,8.77 µM,0.239 µM,> 100 µM,0.128 µM,> 24.7 µM,0.0973 µM,> 100 µM,0.0515 µM,1.14 µM,0.247 µM,> 100 µM,0.0413 µM,22.5 µM,0.479 µM,> 100 µM
Cc1ccc(C)c(NC(=O)NCc2ccc(Cl)cc2)c1,–,> 90.3 µM,–,> 100 µM,–,> 100 µM,–,> 100 µM,–,> 100 µM,–,98.6 µM,–,> 100 µM,–,> 100 µM,–,52.7 µM,–,> 100 µM
O=c1cc(N2CCNCC2)oc2c(-c3ccccc3)cccc12,33.7 µM,> 100 µM,> 100 µM,> 100 µM,26.8 µM,> 100 µM,29.4 µM,> 100 µM,24.8 µM,> 100 µM,13.1 µM,47 µM,15.6 µM,29.1 µM,48.7 µM,> 100 µM,13.8 µM,42.2 µM,45.1 µM,> 100 µM
CC(=O)c1cc2c(cc1Nc1c3ccccc3nc3occ(Cl)c13)OCO2,0.291 µM,> 44.3 µM,0.157 µM,> 100 µM,0.085 µM,> 100 µM,0.0647 µM,0.57 µM,0.439 µM,> 100 µM,0.037 µM,> 100 µM,0.316 µM,37.9 µM,0.27 µM,> 40.1 µM,0.781 µM,> 100 µM,0.603 µM,> 100 µM
